In paper PMC9403976, “Elucidating the path to Plasmodium prolyl-tRNA synthetase inhibitors that overcome halofuginone resistance” (Nature Communications, 2022):
“And” between values parts separate entries of the source, which are not always exact repeats. Identical values can stand only once. Like-named read-outs stand apart in the source and are kept apart here.

What was measured:
[1] = system: halofuginone-induced P. falciparum (elevated proline homeostasis); experiment: P. falciparum ABS growth assay, SYBR Green, 72 h, halofuginone-induced parasites; type: cell-based, Plasmodium falciparum; conditions: Halofuginone-Induced
Summary of the method: (§1)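 Asexual blood-stage Dd2 parasites, 1% parasitemia/1% hematocrit, RPMI + 0.5% Albumax; triplicate dose-response, 72 h. Readout SYBR Green 1 fluorescence. Controls: 10 μM dihydroartemisinin (kill), no compound (growth). EC50 values determined.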

[2] = system: P. falciparum Dd2-2D4 NCP26 selections S1-3; experiment: ABS growth assay on bulk populations and clones from NCP26 resistance selections S1-3; type: cell-based, Plasmodium falciparum; conditions: for EC50: Plasmodium falciparum; for Fold-change Resistance: independent experiments
[3] = system: P. falciparum Dd2-2D4; experiment: P. falciparum asexual blood stage (ABS) growth assay, SYBR Green, 72 h, wild-type parasites; type: cell-based, Plasmodium falciparum; conditions: for parasite growth, replicate wells (Fig 1b): Dd2-2D4
[4] = system: HFGR-I P. falciparum (elevated proline homeostasis and PfcProRS^L482H); experiment: P. falciparum ABS growth assay, SYBR Green, 72 h, HFGR-I parasites; type: cell-based, Plasmodium falciparum; conditions: HFGR-I, listed as Halofuginone (1)
Summary of the method: as §1

[5] = target: HsProRS (Homo sapiens, UniProt P07814); experiment: TR-FRET ligand displacement assay with tracer MAT379 (CoraFluor-1-Halo and anti-His6 antibody formats); type: binding; set-up: made in house; host or cells: E. coli SoluBL-21; conditions: for TR-FRET dose-response, normalized signal (SI Fig 11): individual replicates; for TR-FRET dose-response, normalized signal (SI Fig 11) / normalized TR-FRET ligand displacement signal, dose-response replicates (SI Fig 6): listed as Halofuginone (1)
[6] = Log[inhibitor] (M) -7.602, listed as Halofuginone (1)
[7] = Log[inhibitor] (M) -7.903, listed as Halofuginone (1)
[8] = Log[inhibitor] (M) -8.204, listed as Halofuginone (1)
[9] = Log[inhibitor] (M) -8.806, listed as Halofuginone (1)
[10] = Log[inhibitor] (M) -9.107, listed as Halofuginone (1)
[11] = Log[inhibitor] (M) -9.408, listed as Halofuginone (1)
[12] = Log[inhibitor] (M) -9.709, listed as Halofuginone (1)
[13] = Log[inhibitor] (M) -10.010, listed as Halofuginone (1)
[14] = Log[inhibitor] (M) -10.311, listed as Halofuginone (1)

Sequence of HsProRS (P07814 996-1512): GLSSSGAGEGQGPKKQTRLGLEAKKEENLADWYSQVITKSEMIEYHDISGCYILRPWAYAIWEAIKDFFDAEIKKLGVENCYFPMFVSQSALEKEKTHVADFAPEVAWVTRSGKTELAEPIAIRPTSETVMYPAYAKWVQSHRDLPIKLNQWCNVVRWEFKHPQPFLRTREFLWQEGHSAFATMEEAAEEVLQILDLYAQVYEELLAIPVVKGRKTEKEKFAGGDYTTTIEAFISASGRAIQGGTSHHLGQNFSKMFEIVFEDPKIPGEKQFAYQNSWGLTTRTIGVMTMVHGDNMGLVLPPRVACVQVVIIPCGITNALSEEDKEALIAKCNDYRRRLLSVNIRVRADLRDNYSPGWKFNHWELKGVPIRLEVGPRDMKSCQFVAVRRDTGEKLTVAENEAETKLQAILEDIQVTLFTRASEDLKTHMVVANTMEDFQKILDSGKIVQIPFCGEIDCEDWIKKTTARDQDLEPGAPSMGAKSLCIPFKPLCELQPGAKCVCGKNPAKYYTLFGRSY

O=C(CC1NCCCC1O)Cn1cnc2cc(Br)c(Cl)cc2c1=O (stereo not shown) [Halofuginone]
parasite growth, replicate wells (Fig 1b) ([1]; Log[inhibitor] (M) -7.000): 1.00E+00
parasite growth, replicate wells (Fig 1b) ([1]; Log[inhibitor] (M) -7.301): 6.00E+00
parasite growth, replicate wells (Fig 1b) [1, 6]: 2.30E+01 and 2.20E+01 (2×)
parasite growth, replicate wells (Fig 1b) [1, 7]: 8.60E+01 (2×) and 9.10E+01
parasite growth, replicate wells (Fig 1b) [1, 8]: 1.04E+02 and 1.02E+02 (2×)
parasite growth, replicate wells (Fig 1b) ([1]; Log[inhibitor] (M) -8.505, listed as Halofuginone (1)): 1.05E+02 and 1.03E+02 and 9.50E+01
parasite growth, replicate wells (Fig 1b) [1, 9]: 9.20E+01 and 9.40E+01 and 9.50E+01
parasite growth, replicate wells (Fig 1b) [1, 10]: 9.60E+01 and 9.70E+01 and 9.40E+01
parasite growth, replicate wells (Fig 1b) [1, 11]: 9.80E+01 and 9.60E+01 and 9.50E+01
parasite growth, replicate wells (Fig 1b) [1, 12]: 9.90E+01 and 1.00E+02 and 9.80E+01
parasite growth, replicate wells (Fig 1b) [1, 13]: 1.00E+02 and 9.60E+01 and 9.90E+01
parasite growth, replicate wells (Fig 1b) [1, 14]: 9.90E+01 (2×) and 1.00E+02
EC50 ([2]; DD2, cell line S1 - Clone A8, read-out: EC50 [nM] mean): 0.641 nM
EC50 ([2]; DD2, cell line S1 - bulk population, read-out: EC50 [nM] mean): 0.951 nM
EC50 ([2]; DD2, cell line S2 - Clone A3, read-out: EC50 [nM] mean): 0.36 nM
EC50 ([2]; DD2, cell line S2 - Clone B9, read-out: EC50 [nM] mean): 0.694 nM
EC50 ([2]; DD2, cell line S2 - Clone C5, read-out: EC50 [nM] mean): 0.439 nM
EC50 ([2]; DD2, cell line S2 - bulk population, read-out: EC50 [nM] mean): 0.432 nM
EC50 ([2]; DD2, cell line S3 - Clone B3, read-out: EC50 [nM] mean): 2.51 nM
EC50 ([2]; DD2, cell line S3 - Clone B7, read-out: EC50 [nM] mean): 2.01 nM
EC50 ([2]; DD2, cell line S3 - bulk population, read-out: EC50 [nM] mean): 2.56 nM
EC50 ([2]; DD2, read-out: EC50 [nM] mean, cell line S3 - Clone B2): 2.75 nM
Fold-change Resistance ([2]; S1 - Clone A8): 0.97 and 0.75 and 1.48
Fold-change Resistance ([2]; S2 - Clone B9): 0.89 and 1.08
Fold-change Resistance ([2]; S2 - Clone C5): 0.56 and 0.68
Fold-change Resistance ([2]; S3 - Clone B2): 3.65 and 3.48
Fold-change Resistance ([2]; S3 - Clone B3): 3.93 and 2.72 and 3.23
Fold-change Resistance ([2]; S3 - Clone B7): 2.66 and 3.07 and 3.15
parasite growth, replicate wells (Fig 1b) ([3]; Log[inhibitor] (M) -7.000): 1.00E+00
parasite growth, replicate wells (Fig 1b) ([3]; Log[inhibitor] (M) -7.301): 1.00E+00
parasite growth, replicate wells (Fig 1b) [3, 6]: 0.00E+00 (2×) and 1.00E+00
parasite growth, replicate wells (Fig 1b) [3, 7]: 2.00E+00 (2×) and 0.00E+00
parasite growth, replicate wells (Fig 1b) [3, 8]: 1.00E+00 (2×) and 0.00E+00
parasite growth, replicate wells (Fig 1b) ([3]; Log[inhibitor] (M) -8.505): 0.00E+00
parasite growth, replicate wells (Fig 1b) [3, 9]: 0.00E+00 (2×) and -1.00E+00
parasite growth, replicate wells (Fig 1b) [3, 10]: 5.00E+00 (2×) and 4.00E+00
parasite growth, replicate wells (Fig 1b) [3, 11]: 9.10E+01 and 8.70E+01 and 8.90E+01
parasite growth, replicate wells (Fig 1b) [3, 12]: 1.04E+02 and 1.07E+02 (2×)
parasite growth, replicate wells (Fig 1b) [3, 13]: 1.06E+02 and 1.04E+02 (2×)
parasite growth, replicate wells (Fig 1b) [3, 14]: 9.80E+01 and 9.90E+01 and 9.70E+01
EC50 ([3]; Plasmodium falciparum, DD2, SI Fig 16b, values on -log scale, read-out: ABS - Dd2-2D4 (converted)): 519 pM
parasite growth, replicate wells (Fig 1b) ([4]; Log[inhibitor] (M) -5.204): 3.00E+00 and 2.00E+00 and 4.00E+00
parasite growth, replicate wells (Fig 1b) ([4]; Log[inhibitor] (M) -5.505): 4.00E+00 (2×) and 3.00E+00
parasite growth, replicate wells (Fig 1b) ([4]; Log[inhibitor] (M) -5.806): 3.00E+00 (2×) and 4.00E+00
parasite growth, replicate wells (Fig 1b) ([4]; Log[inhibitor] (M) -6.107): 6.00E+00 (2×) and 5.00E+00
parasite growth, replicate wells (Fig 1b) ([4]; Log[inhibitor] (M) -6.408): 1.70E+01 (2×) and 1.60E+01
parasite growth, replicate wells (Fig 1b) ([4]; Log[inhibitor] (M) -6.709): 5.40E+01 and 5.50E+01 (2×)
parasite growth, replicate wells (Fig 1b) ([4]; Log[inhibitor] (M) -7.000): 7.70E+01 and 8.00E+01 and 8.50E+01
parasite growth, replicate wells (Fig 1b) ([4]; Log[inhibitor] (M) -7.010): 8.50E+01 and 8.60E+01 and 8.30E+01
parasite growth, replicate wells (Fig 1b) ([4]; Log[inhibitor] (M) -7.301): 9.80E+01 and 1.03E+02 and 9.90E+01
parasite growth, replicate wells (Fig 1b) ([4]; Log[inhibitor] (M) -7.311): 9.50E+01 and 9.00E+01 and 9.10E+01
parasite growth, replicate wells (Fig 1b) ([4]; Log[inhibitor] (M) -7.602): 1.01E+02 and 1.03E+02 and 1.05E+02
parasite growth, replicate wells (Fig 1b) ([4]; Log[inhibitor] (M) -7.903): 1.04E+02 and 1.03E+02 and 1.06E+02
parasite growth, replicate wells (Fig 1b) ([4]; Log[inhibitor] (M) -8.204): 1.05E+02 and 1.07E+02 and 1.03E+02
parasite growth, replicate wells (Fig 1b) ([4]; Log[inhibitor] (M) -8.505): 1.06E+02 and 1.04E+02 and 1.02E+02
normalized TR-FRET signal (Fig 2j) ([5]; Halofuginone series, Log[inhibitor] (M) -5.301): 4.67E-01 and 4.34E-01 and 5.01E-01
normalized TR-FRET signal (Fig 2j) ([5]; Halofuginone series, Log[inhibitor] (M) -5.602): 6.44E-01 and 5.92E-01 and 5.65E-01
normalized TR-FRET signal (Fig 2j) ([5]; Halofuginone series, Log[inhibitor] (M) -7.107): 1.11E+00 and 9.45E-01 and 9.98E-01
Kd ([5]; HsProRS - best Kd, SI Fig 16a, values on -log scale): 225 pM
TR-FRET dose-response, normalized signal (SI Fig 11) ([5]; Log[inhibitor] (M) -5.000): 1.22E-01 and 1.04E-01 and 9.99E-02
normalized TR-FRET ligand displacement signal, dose-response replicates (SI Fig 6) ([5]; Log[inhibitor] (M) -5.000): 8.67E-01 and 9.21E-01 and 8.89E-01
normalized TR-FRET ligand displacement signal, dose-response replicates (SI Fig 6) ([5]; Log[inhibitor] (M) -5.258): 9.18E-01 and 9.29E-01 and 9.59E-01
TR-FRET dose-response, normalized signal (SI Fig 11) ([5]; Log[inhibitor] (M) -5.301): 2.23E-01 and 2.19E-01 and 2.35E-01
normalized TR-FRET ligand displacement signal, dose-response replicates (SI Fig 6) ([5]; Log[inhibitor] (M) -5.517): 9.53E-01 and 1.02E+00 (2×)
TR-FRET dose-response, normalized signal (SI Fig 11) ([5]; Log[inhibitor] (M) -5.602): 3.79E-01 and 3.48E-01 and 2.87E-01
normalized TR-FRET ligand displacement signal, dose-response replicates (SI Fig 6) ([5]; Log[inhibitor] (M) -5.775): 1.06E+00 and 1.00E+00 and 1.07E+00
normalized TR-FRET signal (Fig 2j) ([5]; Log[inhibitor] (M) -5.903): 7.44E-01 and 8.56E-01 and 7.84E-01
